Reference: ChEMBL document CHEMBL1828591, “Synthesis of antimitotic thioglycosides: in vitro and in vivo evaluation of their anticancer activity” (J Med Chem, 2011)
Calls of active or inactive are those of the source. No cut-off for these calls is given here.

What was measured:
A549 [1] = assay: Antiproliferative activity against human A549 cells after 48 hrs by MTT assay; assay type: functional; details: A549, 48 h, read-out: ID50 (the source's name)
C6 [2] = assay: Antiproliferative activity against rat C6 cells after 48 hrs by MTT assay; assay type: functional; details: C6, 48 h, read-out: ID50 (the source's name)
A549 [3] = assay: Elevation in glucosylceramide content of human A549 cell extract at 15 uM after 48 hrs by UPLC-MS analysis; assay type: functional, cell-based
A549 [4] = assay: Elevation in lactosylceramide content of human A549 cell extract at 15 uM after 48 hrs by UPLC-MS analysis; assay type: functional
A549 [5] = assay: Reduction in ganglioside GM2 content of human A549 cell extract at 15 uM after 48 hrs by UPLC-MS analysis; assay type: functional, cell-based
A549 [6] = assay: Reduction in ganglioside GM3 content of human A549 cell extract at 15 uM after 48 hrs by UPLC-MS analysis; assay type: functional, cell-based
A549 [7] = assay: Drug uptake in 10^6 human A549 cells at 15 uM after 48 hrs by UPLC-MS analysis; assay type: ADME, cell-based; details: a549, 48 h
[8] = Stability of the compound in presence of Jack bean N-acetyl-D-glucosaminidase at 1 mM after 48 hrs by HPLC analysis; assay type: ADME; details: 1000 µM
[9] = tested on: N-acetyl-D-glucosaminidase; assay: Stability of the compound in presence of Jack bean N-acetyl-D-glucosaminidase assessed as compound hydrolyzed to N-acetyl-D-glucosamine at 1 mM after 48 hrs by HPLC analysis; assay type: ADME; details: Jack bean N-acetyl-D-glucosaminidase (isolated enzyme), read-out: Activity
A549 [10] = assay: Reduction in glucosylceramide content of human A549 cell extract at 15 uM after 48 hrs by UPLC-MS analysis; assay type: functional, cell-based
C6 [11] = assay: Antitumor activity against rat C6 cells xenografted in nude mouse assessed as reduction in tumor size at 1 mg/kg, intratumorally administered for 14 days; assay type: functional, organism-based; set-up: dose 1 mg/kg
C6 [12] = assay: Antitumor activity against rat C6 cells xenografted in nude mouse assessed as reduction in tumor size at 10 mg/kg, intratumorally administered for 14 days relative to control; assay type: functional, organism-based; set-up: dose 10 mg/kg
C6 [13] = assay: Antitumor activity against rat C6 cells xenografted in nude mouse assessed as reduction of creatine levels in tumor at 10 mg/kg, intratumorally administered for 14 days by 1H MAS NMR spectroscopy relative to control; assay type: functional, organism-based; set-up: dose 10 mg/kg
C6 [14] = assay: Antitumor activity against rat C6 cells xenografted in nude mouse assessed as increase in choline-containing metabolite levels in tumor at 10 mg/kg, intratumorally administered for 14 days by 1H MAS NMR spectroscopy relative to control; assay type: functional, organism-based; set-up: dose 10 mg/kg
C6 [15] = assay: Antitumor activity against rat C6 cells xenografted in nude mouse assessed as increase in lactate levels in tumor at 10 mg/kg, intratumorally administered for 14 days by 1H MAS NMR spectroscopy relative to control; assay type: functional, organism-based; set-up: dose 10 mg/kg
C6 [16] = assay: Antitumor activity against rat C6 cells xenografted in nude mouse assessed as increase in acetate levels in tumor at 10 mg/kg, intratumorally administered for 14 days by 1H MAS NMR spectroscopy relative to control; assay type: functional, organism-based; set-up: dose 10 mg/kg
[17] = Drug uptake in cyst of nude mouse xenografted with rat C6 cells assessed as formation of olelyl alcohol at 10 mg/kg, intratumorally administered for 8 days by 1H MAS NMR spectroscopy; assay type: ADME, organism-based; set-up: dose 10 mg/kg; details: in vivo, other, 192 h
C6 [18] = assay: Antitumor activity against rat C6 cells xenografted in nude mouse assessed as delay in tumor growth at 1 to 10 mg/kg, intratumorally administered for 8 days measured after 8 days relative to control; assay type: functional, organism-based
C6 [19] = assay: Antitumor activity against rat C6 cells xenografted in nude mouse assessed as reduction in tumor volume at 1 to 10 mg/kg, intratumorally administered for 8 days measured after 8 days relative to control; assay type: functional, organism-based

CCCCCCCC/C=C\CCCCCCCCS[C@@H]1O[C@H](CO)[C@@H](O)[C@H](O)[C@H]1NC(C)=O
IC50 (A549 [1]): 30 µM | IC50 (C6 [2]): 26 µM | Activity (A549 [3]): inactive | Activity (A549 [4]): 40% | Activity (A549 [5]): Active | Activity (A549 [6]): Active | Drug uptake (A549 [7]): 3333 pmol | Stability [8]: Stable

CCCCCCCC/C=C\CCCCCCCCO[C@@H]1O[C@H](CO)[C@@H](O)[C@H](O)[C@H]1NC(C)=O
metabolised at 48 h, 1000 µM [9]: 32% | IC50 (A549 [1]): 50 µM | IC50 (C6 [2]): 38 µM | Activity (A549 [3]): inactive | Activity (A549 [4]): 40% | Activity (A549 [5]): Active | Activity (A549 [6]): Active | Drug uptake (A549 [7]): 952 pmol

CCCCCCCC/C=C\CCCCCCCCS[C@H]1O[C@H](CO)[C@@H](O)[C@H](O)[C@H]1NC(C)=O
IC50 (A549 [1]): 35 µM | IC50 (C6 [2]): 14 µM | Activity (A549 [10]): inactive | Activity (A549 [4]): 40% | Activity (A549 [5]): Active | Activity (A549 [6]): Active | Drug uptake (A549 [7]): 3675 pmol | Activity (C6 [11]): inactive | Activity (C6 [12]): Active | Activity (C6 [13]): Active | Activity (C6 [14]): Active | Activity (C6 [15]): Active | Activity (C6 [16]): Active

CCCCCCCC/C=C\CCCCCCCCO[C@H]1O[C@H](CO)[C@@H](O)[C@H](O)[C@H]1NC(C)=O
IC50 (A549 [1]): 25 µM | IC50 (C6 [2]): 16 µM | Activity (A549 [10]): inactive | Activity (A549 [4]): 40% | Activity (A549 [5]): Active | Activity (A549 [6]): Active | Drug uptake (A549 [7]): 2916 pmol | Activity (C6 [11]): inactive | Drug uptake [17]: Active | Activity (C6 [18]): inactive | Activity (C6 [19]): inactive
